Test results taken from patent publication US9719982B2, “Devices comprising muscle thin films and uses thereof in high throughput assays for determining contractile function” (President and Fellows of Harvard College, priority 2009, dated 2017).
Positions of bridges follow the written chain, without caps; N, C: chain ends. No end group written: not given here.

Assays:
[1] = test system: Human umbilical artery vascular smooth muscle; assay: Vascular muscular thin film (vMTF) contractility assay, films adhered to PTFE coated posts; format: cell-based
Procedure: Human umbilical artery vascular smooth muscle was seeded on thin films at 300 cells/mm^2 in complete M199 medium (M199 supplemented with 10% fetal bovine serum (FBS), penicillin, streptomycin, L-glutamine, glucose and vitamin B12). The tissue was cultured in complete M199 for 48 hours, with a single media change at 24 hours. After 48 hours, the cells were serum starved for an additional 48 hours (M199 supplemented with penicillin, streptomycin, L-glutamine, glucose and vitamin B12, but no FBS).
Muscle thin films were transferred to fresh Tyrode's solution in the testing dish (FIG. 1), which is maintained at 37° C. by a peltier heating system. Films were adhered to Teflon coated posts (FIG. 3) by moving them into close contact using tweezers. The films were imaged using a stereomicroscope outfitted with fluorescent imaging capability. Both brightfield and fluorescent images were captured every thirty seconds. In the experiment shown in FIG. 4, four films were treated with 50 nM endothelin-1 followed by 100 μM HA-1077 (fasudil).
Quantification and analysis of thin film motion was performed using ImageJ (NIH) and MATLAB software. Thresholded fluorescent images (FIG. 4 B) were fit to circles whose radii of curvature could be measured (FIG. 4C). Using elasticity theory, the contraction stress necessary to induce the measured changes in curvature were calculated (FIG. 4D).
Human umbilical artery VSMCs were engineered as anisotropic monolayers aligned parallel to the long axis of the MTF. The vMTFs were adhered to PTFE coated posts via hydrophobic interaction with the PDMS. This arrangement allowed multiple vMTFs to be viewed concurrently. Here, eight vMTFs were tested using this assay. The fluorosphere doped PDMS could be viewed using fluorescent stereomicroscopy. In this arrangement, the films are easily approximated as circular arcs.
The vMTFs were treated with the endothelium-produced vasoconstrictor endothelin-1 followed by the rho-kinase inhibitor HA-1077, in order to calculate all of the relevant stress states of arterial muscle. […] This value represents the resting tension of the tissue. […] The HA-1077 dosage is sufficient to inhibit all myosin light chain phosphorylation, so this value represents the residual stress, or the stress generated by the cytoskeletal elements not involved in the contractile apparatus, but which remains after all other loads are removed.

[2] = test system: vascular smooth muscle cells; assay: Horizontal muscular thin film (hMTF) contractility assay with vascular smooth muscle cells; format: cell-based
Procedure: FIG. 12 contrasts the use of fluorescent microscopy and the use of brightfield stereo microscopy of vascular smooth muscle (VSM) horizontal MTFs during an assay of the invention as described in Example 5. The top row depicts fluorescent microscopy photographs of VSM horizontal MTFs comprising fluorescent beads embedded in the PDMS film. […] (A) Photographs taken 5 minutes after the start of the experiment, the films are slightly bent up from the glass due to the initial contraction of VSM. (B) Photographs taken 20 minutes after addition of the vasoconstrictor (Endothilin-1), which causes the VSM to contract and the films to bend up from the glass. […] Actuation and observation of multiple MTFs was carried out in a physiologic solution (e.g., normal Tyrodes solution). The horizontal […]) fabricated with vascular smooth muscle cells in the presence of fluorescent beads were treated with the endothelium-produced vasoconstrictor endothelin-1 (ET-1) followed by the rho-kinase inhibitor HA-1077. […] Quantification and analysis of thin film motion was performed using ImageJ (NIH) and MATLAB software. From the thresholded fluorescent images the length of the projection of the film on the horizontal plane was tracked throughout the contraction and the radius of curvature calculated. Using elasticity theory, the contraction stress necessary to induce the measured changes in curvature were calculated.

Compound	change in radius of curvature of vMTFs ([1]; 100 μM HA-1077 following ET-1)	stress after inhibition of contraction (residual stress) ([1]; treatment with 100 μM HA-1077 following 50 nM ET-1) [kPa]	change in radius of curvature of hMTFs ([2]; 100 mM HA-1077 following ET-1)	effect on VSM horizontal MTFs (FIG. 12C) ([2]; 30 minutes after addition of rho-kinase inhibitor, films lie flat on the glass)	change in radius of curvature of vMTFs ([1]; 50 nM ET-1)	increase in cell generated stress ([1]; vMTFs stimulated with 50 nM ET-1 at time 0, basal stress 17.1±1.7 kPa) [kPa]	change in radius of curvature of hMTFs ([2]; 50 nM ET-1 at time 0)	effect on VSM horizontal MTFs (FIG. 12B) ([2]; 20 minutes after addition of the vasoconstrictor, films bend up from the glass)
O=S(=O)(c1cccc2cnccc12)N1CCCNCC1 [HA-1077, fasudil]	rapid increase in radius of curvature	3.1±0.8	rapid increase in radius of curvature	completely relax				
endothelin-1 (CSCSSLMDKECVYFCHLDIIW; disulfide 1-15, 3-11; ends not checked; UniProt P05305 53-73, looked up) [ET-1, endothelium-produced vasoconstrictor]					decrease in their radii of curvature	5.06±0.75	decrease in their radii of curvature	contract
